Assay results reported in patent US20080300298A1, “Honokiol Derivates For the Treatment of Proliferative Disorders” (priority 2005, published 2008).

What was measured:
cytotoxicity assay (MTT) [1] = assay type: cell-based
Description: (§1) The cytotoxicity of the honokiol and analogues thereof were assessed in human PBM, CEM and Vero cells (Table 4). Compounds can be evaluated for their potential toxic effects on uninfected human PBM cells, in CEM (T-lymphoblastoid cell line obtained from American Type Culture Collection, Rockville, Md.) and Vero (African green monkey kidney) cells. PBM cells can be obtained from whole blood of healthy seronegative donors (HIV-1) by single-step Ficoll-Hypaque discontinous gradient centrifugation. […] All of the cells can be plated in 96-well cell culture plates containing ten-fold serial dilutions of the test drug. […] At the end of incubation, MTT tetrazolium dye solution (Cell titer 96®, Promega, Madison, Wis.) can be added to each well and incubated overnight. The reaction can be stopped with stop solubilization solution (Promega, Madison, Wis.). […] The plates can be read at a wavelength of 570 nm using an ELISA plate reader (Bio-tek instruments, Inc., Winooski, Vt., Model #EL 312e). The 50% inhibition concentration (IC50) can be determined from the concentration-response curve using the median effect method.

HIV-1 = test: HIV assay in PBM cells (RT activity); assay type: cell-based; details: Human immunodeficiency virus 1, PBMC, HIV-1 in human PBM cells
Description: The antiviral activity of the synthesized compounds and honokiol were evaluated against HIV-1 in human peripheral blood mononuclear (PBM) cells (Table 4).
Human peripheral blood mononuclear (PBM) cells (which can be obtained from Atlanta Red Cross) can be isolated by Ficoll-Hypaque discontinuous gradient centrifugation from healthy seronegative donors. Cells can be stimulated with phytohemagglutinin A (Difco, Sparks, Md.) for 2-3 days prior to use. HIV-1, such as HIV-1LAI can be obtained from the Centers for Disease Control and Prevention (Atlanta, Ga.), and can be used as the standard reference virus for the antiviral assays. The molecular infectious clones HIV-1xxBru and HIV-1M184Vpin can be obtained from Dr. John Mellors (University of Pittsburgh). Infections can be done in bulk for one hour, either with 100 TCID50/1×10^7 cells for a flask (T25) assay or with 200 TCID50/6×10^5 cells/well for a 24 well plate assay. Cells can be added to a plate or flask containing a ten-fold serial dilution of the test compound. Assay medium can be RPMI-1640 supplemented with heat inactivated 16% fetal bovine serum, 1.6 mM L-glutamine, 80 IU/ml penicillin, 80 μg/ml streptomycin, 0.0008% DEAE-Dextran, 0.045% sodium bicarbonate, and 26 IU/ml recombinant interleukin-2 (Chiron Corp, Emeryville, Calif.). AZT can be used as a positive control for the assay. Untreated and uninfected PBM cells can be grown in parallel at equivalent cell concentrations as controls. The cell cultures can be maintained in a humidified 5% CO2-air at 37° C. for 5 days and supernatants can be collected for reverse transcriptase (RT) activity.
Supernatants can be centrifuged at 12,000 rpm for 2 hours to pellet the virus. The pellet can be solubilized with vortexing in 100 μl virus solubilization buffer (VSB) containing 0.5% Triton X-100, 0.8 M NaCl, 0.5 mM phenylmethylsulfonyl fluoride, 20% glycerol, and 0.05 M Tris, pH 7.8. Ten μL of each sample can be added to 75 μL RT reaction mixture (0.06 M Tris, pH 7.8, 0.012 M MgCl2, 0.006 M dithiothreitol, 0.006 mg/ml poly (rA)n, oligo (dT)12-18, 96 μg/ml dATP, and 1 μM of 0.08 mCi/ml ^3H-thymidine triphosphate (Moravek Biochemicals, Brea, Calif.) and can be incubated at 37° C. for 2 hours. The reaction can be stopped by the addition of 100 μL 10% trichloroacetic acid containing 0.05% sodium pyrophosphate. The acid insoluble product can be harvested onto filter paper using a Packard Harvester (Meriden, Conn.), and the RT activity can be read on a Packard Direct Beta Counter (Meriden, Conn.). The RT results can be expressed in counts per minute (CPM) per milliliter. The antiviral 50% effective concentration (EC50) and 90% effective concentration (EC90) can be determined from the concentration-response curve using the median effect method (Belen'kii, S. M.; Schinazi, R. S. Multiple drug effect analysis with confidence interval. Antiviral. Res. 1994, 25, 1-11).

cytotoxicity assay (MTT) [2] = assay type: cell-based, human; details: human; uninfected PBM cells; read-out: Cytotoxicity (EC50-μM) in: PBM
Description: as §1

[3] = test system: SVR (a transformed endothelial cell line); test: SVR cellular proliferation assay; assay type: cell-based; details: Mus musculus, SVR cells; for inhibition at 10 µg/mL: 10 μg/mL; for inhibition at 15 µg/mL: 15 μg/mL
Description: The SVR (a transformed endothelial cell line) proliferation assay can be used as a direct measure of antiangiogenic and antitumor activity. This assay serves as a high throughput screen that compares the effects of a compound on proliferation of SVR cells versus an immortalized endothelial cell line, MS1. […] SVR cells were plated in 24-well dishes. The next day, the medium was replaced with fresh medium containing the inhibitors or vehicle controls. Cells were incubated at 37° C. for 72 h (Arbiser, J. L., et al. 1999 J. Am. Acad. Dermatol. 40, 925-929; LaMontagne, K. R., et al. 2000 Am. J. Pathol. 157, 1937-1945), and cell number was determined in triplicate using a Coulter Counter (Hialeah, Fla.). Immortalized and K-Ras transformed rat epithelial cells (RIEpZip and […]) and fibroblasts (NIH3T3 pZip and NIH3T3 pZipK-Ras12V) were maintained at 37° C., 10% CO2, in Dulbecco's modified Eagle's medium supplemented with 5% fetal calf serum (RIE) or 10% calf serum (NIH3T3) (Oldham, S. M., et al. 1996 Proc. Natl. Acad. Sci. U.S.A. 93, 6924-6928; Pruitt, K., et al. 2000 J. Biol. Chem. 275, 40916-40924). Cells were plated at 10^5/well in six-well plates.

[4] = toxicity in mice (Table 5); details: mouse, in vivo
Source text: In vivo models of cancer growth include xenografts of human tumor cells injected into animals, such as mice, particularly immunocomprimised mice. Toxicity of the compounds can also be assessed in these assays through daily administration of the compounds to the animals combined with daily monitoring of the animals. The animals can also be monitored for two weeks to look for weight loss, as well as other common toxicities known to one skilled in the art, such as altered grooming, decreased movement of mice, and tremor. The compounds can also be tested for their ability to inhibit tumor growth in animals. SVR angiosarcoma tumor cells, for example, can be injected into animals, such as immunocompromised mice. Mice can be injected with approximately one million SVR cells subcutaneously, and when tumors become palpable, can be treated with a beginning dose (such as 120 mg/kg intraperitoneally) once daily. Drugs that are active at 120 mg/kg can then be retested at lower doses of 80 mg/kg, 40 mg/kg, etc. Tumor volume can be calculated using the formula (w2×L)0.52, where w (width) represents the smallest dimension of the tumor. Mice can be treated for a period of time such as approximately 30 days, or until tumor growth reaches 1 cm^3.

Row | SMILES | inhibition at 10 µg/mL [3] [%] | inhibition at 15 µg/mL [3] [%] | other results
1 | C=CCc1ccc(O)c(-c2cc(CC=C)ccc2O)c1 | – | – | EC50 at 3 days (cytotoxicity assay (MTT) [1]; African green monkey, Vero cells, read-out: Cytotoxicity (EC50-μM) in: VERO): 79.9 µM; EC50 at 4 days (cytotoxicity assay (MTT) [1]; human, CEM cells, read-out: Cytotoxicity (EC50-μM) in: CEM): 99.6 µM; EC50 (HIV-1; read-out: Activity anti-VIH-1 on PBM cells EC50): 69.3 µM; EC90 (HIV-1; read-out: Activity anti-VIH-1 on PBM cells EC90): > 100 µM; EC50 at 5 days (cytotoxicity assay (MTT) [2]): 38.6 µM
2 | C=CCC1=C(CC=C)C(=O)c2ccccc2C1=O | 87.5 | 91.5 | Toxicity [4]: Toxic
3 | C=CCc1ccc(OS(=O)(=O)c2ccccc2)c(-c2ccc(OS(=O)(=O)c3ccccc3)c(CC=C)c2)c1 | 35.3 | 37.9 | –
4 | C=CCc1ccc(O)c(CC=C)c1O | 37.2 | 36 | –
5 | C=CCc1cc(-c2cccc(CC=C)c2O)ccc1O | 74.2 | 81.6 | –
6 | C=CCc1c(O)ccc2c3ccccc3n(CC=C)c12 | 69.7 | 78.7 | –
7 | C=CCc1cc2c3ccccc3n(CC=C)c2cc1O | 68.9 | 76.1 | –
8 | O=C(CCc1ccccc1)Oc1cc(OC(=O)CCc2ccccc2)cc(OC(=O)CCc2ccccc2)c1 | 5 | 25 | –
9 | C=CCc1cccc(-c2ccccc2O)c1O | 47.1 | 59.3 | –
10 | C=CCc1cc(Cc2ccc(O)c(CC=C)c2)ccc1O | 75.5 | 73.7 | Toxicity [4]: Toxic
11 | C=CCOc1ccc(/C=C/C(=O)CC(=O)/C=C/c2ccc(OCC=C)c(OC)c2)cc1OC | 70 | 67.9 | –
12 | C=CCOc1ccc(/C=C/C(=O)CC(=O)/C=C/c2ccc(O)c(OC)c2)cc1OC | 75.2 | 78.8 | –
13 | C=CCc1cc(/C(CC)=C(\CC)c2ccc(O)c(CC=C)c2)ccc1O | 68.4 | 89.3 | Toxicity [4]: Toxic
14 | O=C(/C=C/c1ccccc1)Oc1cc(OC(=O)/C=C/c2ccccc2)cc(OC(=O)/C=C/c2ccccc2)c1 | 13.4 | 8.6 | –
15 | C=CCc1cc(-c2ncc(O)cn2)ccc1O | 4.4 | 10 | –
